Target: T1, His6-PDK1 (aa 52-556) (Homo sapiens, UniProt O15530)
T1 construct: 15 μL His6-PDK1 (aa 52-556) 3.33 ng/well); host or cells: baculovirus-infected insect cells
T1 sequence (O15530 52-556): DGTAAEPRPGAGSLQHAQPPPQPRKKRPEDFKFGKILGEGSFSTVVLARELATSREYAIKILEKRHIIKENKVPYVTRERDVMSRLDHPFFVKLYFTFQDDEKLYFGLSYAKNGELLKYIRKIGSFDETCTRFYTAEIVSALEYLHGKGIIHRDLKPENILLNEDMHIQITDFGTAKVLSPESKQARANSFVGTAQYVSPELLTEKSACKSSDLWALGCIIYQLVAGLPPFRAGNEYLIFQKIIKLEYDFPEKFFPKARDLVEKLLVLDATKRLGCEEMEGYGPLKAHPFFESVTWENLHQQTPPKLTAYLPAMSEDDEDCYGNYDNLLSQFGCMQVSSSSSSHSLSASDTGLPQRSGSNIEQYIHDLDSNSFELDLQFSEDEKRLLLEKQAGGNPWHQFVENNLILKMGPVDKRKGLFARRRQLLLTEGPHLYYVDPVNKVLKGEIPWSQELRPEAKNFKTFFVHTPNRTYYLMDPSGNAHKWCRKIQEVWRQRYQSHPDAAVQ
Assay: PDK1 kinase assay III (with Tween 20)
Type: biochemical
Conditions: compound at 10 μM; PDK1 kinase assay III (values without asterisk); read-out: % CTL (residual activity of the enzyme relative to DMSO control)
Protocol: Purified enzyme may be obtained for example from the University of Dundee, Scotland.
Another PDK1 assay was developed which by comparison with PDK1 assay 1 additionally contains Tween 20:
The final concentration of Tween 20 is 0.005%.
The reaction is started by adding the ATP solution and the mixture is incubated for 90 min at ambient temperature; at the start of the reaction the dishes are shaken gently. The reaction is stopped by the addition of 50 μL/well of 500 mM phosphoric acid (H3PO4) and incubated for about 20 min at ambient temperature. […] The measured data are evaluated using Graphpad Prism software.
The % CTL values indicate the residual activity of the enzyme after the addition of the inhibitory compound in the solvent DMSO in relation to the enzyme activity in the solvent DMSO without the addition of a compound (control). The majority of the values were determined using the PDK1 kinase assay III described hereinbefore. The values marked with an asterisk (* or**) were determined using the PDK1 kinase assay II described hereinbefore (one asterisk→incubation for 24 h; two asterisks→incubation for 5 min)

SMILES | remaining activity at 10 µM
CN1CCC(Nc2ccc(Nc3ncc4cc(/C=C/CNC(=O)c5cncn(Cc6ccc(F)c(F)c6)c5=O)ccc4n3)cc2F)CC1 [IV-46, 1-(3,4-difluorobenzyl)-N-{(2E)-3-[2-({3-fluoro-4-[(1-methylpiperidin-4-yl)amino]-phenyl}amino)quinazolin-6-yl]prop-2-en-1-yl}-6-oxo-1,6-dihydropyrimidine-5-carboxamide] | 11.9%
O=C1Nc2cc(/C=C/CNC(=O)c3cccc(Nc4ccc(F)c(F)c4)n3)ccc2/C1=C/c1cnc[nH]1 [I-20, 6-[(3,4-difluorophenyl)amino]-N-{(2E)-3-[(3Z)-3-(1H-imidazol-5-ylmethylidene)-2-oxo-2,3-dihydro-1H-indol-6-yl]prop-2-en-1-yl}pyridine-2-carboxamide] | 42.7%
O=C(NC/C=C/c1ccc2nc(NC3CC3)ncc2c1)c1cncn(Cc2ccc(F)c(F)c2)c1=O | 17%
CN(C)Cc1ccc(Nc2ncc3cc(N4CC(NC(=O)c5cncn(Cc6ccc(F)c(F)c6)c5=O)C4)ccc3n2)cc1 [IV-31, 1-(3,4-difluorobenzyl)-N-{1-[2-({4-[(dimethylamino)methyl]phenyl}amino)quinazolin-6-yl]azetidin-3-yl}-6-oxo-1,6-dihydropyrimidine-5-carboxamide] | 20.2%
N#Cc1ccc(Nc2ncc3cc(C#CCNC(=O)c4cncn(Cc5ccc(F)c(F)c5)c4=O)ccc3n2)cc1 [III-44, N-(3-{2-[(4-cyanophenyl)amino]quinazolin-6-yl}prop-2-yn-1-yl)-1-(3,4-difluorobenzyl)-6-oxo-1,6-dihydropyrimidine-5-carboxamide] | 30.4%
CCNc1ncc2cc(C#CCNC(=O)c3cncn(Cc4ccc(F)c(F)c4)c3=O)ccc2n1 | 17.6%
Cc1c(C(=O)NCC#Cc2ccc3c(-c4ccco4)n[nH]c3c2)c(=O)n(Cc2ccc(F)c(F)c2)n1C [II-5, 2-(3,4-difluorobenzyl)-N-{3-[3-(furan-2-yl)-1H-indazol-6-yl]prop-2-yn-1-yl}-1,5-dimethyl-3-oxo-2,3-dihydro-1H-pyrazole-4-carboxamide] | 22.7%
Cc1c(C(=O)NCC#Cc2cc(OC3CCNC3)c3nc(Nc4ccc(N5CCOCC5)cc4)ncc3c2)c(=O)n(Cc2ccc(F)c(F)c2)n1C (stereo not drawn) [III-76] | 11.8%
Cc1c[nH]c(/C=C2\C(=O)Nc3cc(/C=C/CNC(=O)c4cncn(Cc5ccc(F)c(F)c5)c4=O)ccc32)n1 [I-38, 1-(3,4-difluorobenzyl)-N-[(2E)-3-{(3Z)-3-[(4-methyl-1H-imidazol-2-yl)methylidene]-2-oxo-2,3-dihydro-1H-indol-6-yl}prop-2-en-1-yl]-6-oxo-1,6-dihydropyrimidine-5-carboxamide] | 20.5%
COc1cc(C(=O)NC2CCN(C)CC2)ccc1Nc1ncc2cc(C#CCNC(=O)c3c(C)n(C)n(Cc4ccc(F)c(F)c4)c3=O)ccc2n1 | 61.8%
COC(=O)c1ccc(Nc2ncc3cc(/C=C/CNC(=O)c4c(C)n(C)n(Cc5ccc(F)c(F)c5)c4=O)ccc3n2)cc1 | 20.7%
O=C1Nc2cc(C#CCNC(=O)c3cncn(Cc4ccc(F)c(F)c4)c3=O)ccc2/C1=C/c1cnc[nH]1 [I-44, 1-(3,4-difluorobenzyl)-N-{3-[(3Z)-3-(1H-imidazol-5-ylmethylidene)-2-oxo-2,3-dihydro-1H-indol-6-yl]prop-2-yn-1-yl}-6-oxo-1,6-dihydropyrimidine-5-carboxamide] | 15.6%
CN(C)Cc1ccc(Nc2ncc3cc(/C=C/CNC(=O)c4cn(C)c(=O)n(Cc5ccc(F)c(F)c5)c4=O)ccc3n2)cc1 [IV-22, 3-(3,4-difluorobenzyl)-N-{(2E)-3-[2-({4-[(dimethylamino)methyl]phenyl}amino)-quinazolin-6-yl]prop-2-en-1-yl}-1-methyl-2,4-dioxo-1,2,3,4-tetrahydropyrimidine-5-carboxamide] | 19.7%
Cc1c(C(=O)NC/C=C\c2ccc3cn[nH]c3c2)c(=O)n(Cc2ccc(F)c(F)c2)n1C [II-7, 2-(3,4-difluorobenzyl)-N-[(2Z)-3-(1H-indazol-6-yl)prop-2-en-1-yl]-1,5-dimethyl-3-oxo-2,3-dihydro-1H-pyrazole-4-carboxamide] | 27.4%
CNC(=O)c1ccc(Nc2ncc3cc(/C=C/CNC(=O)c4cncn(Cc5ccc(F)c(F)c5)c4=O)ccc3n2)cc1Cl | 14.1%
Cc1c(C(=O)NC/C=C/c2ccc3nc(Nc4ccc(N(C)C5CCN(C)CC5)cc4)ncc3c2)c(=O)n(Cc2ccc(F)c(F)c2)n1C [IV-54, 2-(3,4-difluorobenzyl)-1,5-dimethyl-N-{(2E)-3-[2-({4-[methyl(1-methylpiperidin-4-yl)amino]phenyl}amino)quinazolin-6-yl]prop-2-en-1-yl}-3-oxo-2,3-dihydro-1H-pyrazole-4-carboxamide] | 16.6%
Cc1c(C#CCNC(=O)c2c(C)n(C)n(Cc3ccc(F)c(F)c3)c2=O)c(=O)n(CCN)c2nc(Nc3ccc(N4CCOCC4)cc3)ncc12 [IV-60, N-{3-[8-(2-aminoethyl)-5-methyl-2-{[4-(morpholin-4-yl)phenyl]amino}-7-oxo-7,8-dihydropyrido[2,3-d]pyrimidin-6-yl]prop-2-yn-1-yl}-2-(3,4-difluorobenzyl)-1,5-dimethyl-3-oxo-2,3-dihydro-1H-pyrazole-4-carboxamide] | 13.3%
CCNc1ncc2cc(/C=C/CNC(=O)c3cncn(Cc4ccc(F)c(F)c4)c3=O)ccc2n1 | 23.5%
Cc1c(C(=O)NC/C=C/c2cc(OCCN)c3nc(Nc4ccccc4)ncc3c2)c(=O)n(Cc2ccc(F)c(F)c2)n1C | 19.5%
Cc1c(C(=O)NC/C=C/c2ccc3nc(Nc4ccc(C(=O)NC5CCN(C)CC5)c(Cl)c4)ncc3c2)c(=O)n(Cc2ccc(F)c(F)c2)n1C | 14.4%
O=C(NCCO)c1ccc(Nc2ncc3cc(C#CCNC(=O)c4cncn(Cc5ccc(F)c(F)c5)c4=O)ccc3n2)cc1 [III-115] | 13.5%
Cc1c(C(=O)NCC#Cc2ccc3nc(Nc4ccc(C(=O)N(C)CCCO)cc4)ncc3c2)c(=O)n(Cc2ccc(F)c(F)c2)n1C | 23.2%
Nc1ncc2cc(/C=C/CNC(=O)c3cncn(Cc4ccc(F)c(F)c4)c3=O)ccc2n1 [IV-48, N-[(2E)-3-(2-aminoquinazolin-6-yl)prop-2-en-1-yl]-1-(3,4-difluorobenzyl)-6-oxo-1,6-dihydropyrimidine-5-carboxamide] | 24.4%
CN(C)Cc1ccc(Nc2ncc3cc(/C=C(\F)CNC(=O)c4cncn(Cc5ccc(F)c(F)c5)c4=O)ccc3n2)cc1 [IV-30, 1-(3,4-difluorobenzyl)-N-{(2Z)-3-[2-({4-[(dimethylamino)methyl]phenyl}amino)-quinazolin-6-yl]-2-fluoroprop-2-en-1-yl}-6-oxo-1,6-dihydropyrimidine-5-carboxamide] | 13.7%
CN(C)Cc1ccc(Nc2ncc3cc(C#CCNC(=O)c4cncn(Cc5ccc(F)c(F)c5)c4=O)ccc3n2)cc1 [III-16, 1-(3,4-difluorobenzyl)-N-{3-[2-({4-[(dimethylamino)methyl]phenyl}amino)quinazolin-6-yl]prop-2-yn-1-yl}-6-oxo-1,6-dihydropyrimidine-5-carboxamide] | 9.5%
CN1CCC(Nc2ccc(Nc3ncc4cc(C#CCNC(=O)c5nccn(Cc6ccc(F)c(F)c6)c5=O)ccc4n3)cc2F)CC1 [III-35, 4-(3,4-difluorobenzyl)-N-{3-[2-({3-fluoro-4-[(1-methylpiperidin-4-yl)amino]-phenyl}amino)quinazolin-6-yl]prop-2-yn-1-yl}-3-oxo-3,4-dihydropyrazine-2-carboxamide] | 14.9%
Cc1cccc(Nc2ncc3cc(C#CCNC(=O)c4c(C)n(C)n(Cc5ccc(F)c(F)c5)c4=O)ccc3n2)c1 [III-79] | 20%
O=C1Nc2cc(/C=C/CNC(=O)C3CCCN(Cc4ccc(F)c(F)c4)C3=O)ccc2/C1=C/c1ccc[nH]1 (stereo not drawn) [I-10, 1-(3,4-difluorobenzyl)-2-oxo-N-{(2E)-3-[(3Z)-2-oxo-3-(1H-pyrrol-2-ylmethylidene)-2,3-dihydro-1H-indol-6-yl]prop-2-en-1-yl}piperidine-3-carboxamide] | 36.1%
Cc1c(C(=O)NCC#Cc2ccc3nc(Nc4ccc(CN(C)C)cc4)ncc3c2)c(=O)n(Cc2ccccc2)n1C [III-18, 2-benzyl-N-{3-[2-({4-[(dimethylamino)methyl]phenyl}amino)quinazolin-6-yl]prop-2-yn-1-yl}-1,5-dimethyl-3-oxo-2,3-dihydro-1H-pyrazole-4-carboxamide] | 14.7%

Same assay, conditions: read-out: % CTL (residual activity of the enzyme relative to DMSO control)

SMILES | remaining activity at 10 µM
Cc1c(C(=O)NC/C=C/c2ccc3nc(NC(C)C)ncc3c2)c(=O)n(Cc2ccc(F)c(F)c2)n1C [IV-92] | 21.6%
